Test systems include SK-OV-3; HCT-15; ACHN; SK-MEL-28; NCI-H23; SNB-19; HCC 2998; UACC-257; KM12; M14; SF-539; Malme-3M; HT-29; CAKI-1; RPMI-8226; OVCAR-5.
Assay in all cases: NCI tumour cell line growth inhibition, 48 h

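These data come from cells grown in 96-well plates and exposed to compound for 48 hours at five concentrations. Here, GI50 denotes the concentration required for 50% inhibition of growth.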 The source made the active and inactive calls. Rule as the data show it: active = GI50 up to about 1.1 µM and inactive = higher. Some results are limits rather than exact numbers.

This is an account of results in ChEMBL document CHEMBL1201862, “PubChem BioAssay data set” (2004).

In the case of `O=C1SC(c2ccccc2)(c2ccccc2)c2ccccc21`, the GI50 in the assay with SK-OV-3 is > 100 µM (inactive); in the assay with HCT-15, > 100 µM; in the assay with ACHN it was 34.3 µM (inactive); in the assay on SK-MEL-28, > 100 µM (inactive); in the assay with NCI-H23 it was > 100 µM (inactive); in the assay on SNB-19 it was > 100 µM (inactive). Also, the GI50 with HCC 2998 was > 100 µM (inactive); with UACC-257, > 100 µM (inactive); in the assay with KM12 it was 66.8 µM (inactive); with M14, 64.6 µM (inactive); with SF-539 it was > 100 µM (inactive); in the assay on Malme-3M it was > 100 µM (inactive). Besides, the figures for the GI50 with HT-29, with CAKI-1 and in the assay with RPMI-8226 were 57.7 µM (inactive), > 100 µM (inactive) and 45.5 µM (inactive), respectively.

Turning to `CC(C)OP(=O)(OC(C)C)/C(=N/Nc1ccc([N+](=O)[O-])cc1)NNC(=O)c1ccccc1`, the GI50 in the assay with HCT-15 is 48.1 µM; in the assay with ACHN it was 82.4 µM (inactive); with SK-MEL-28 it was 40.6 µM (inactive); in the assay on NCI-H23, 24.7 µM (inactive); in the assay on SNB-19, 73.8 µM (inactive); with HCC 2998 it was 25.8 µM (inactive). For the same compound, the GI50 with UACC-257 was 37.3 µM (inactive); in the assay on KM12, 38.3 µM (inactive); with M14 it was 33.2 µM (inactive); in the assay on SF-539 it was > 100 µM (inactive); in the assay on OVCAR-5, > 100 µM (inactive); in the assay with Malme-3M, > 100 µM (inactive). For the same compound, the GI50 in the assay with CAKI-1 is 76.6 µM (inactive); in the assay with RPMI-8226, 29.7 µM (inactive).

As to `CCOC(=O)/C(=C/c1ccc(OC)cc1)N(CC)CC`, the GI50 was > 100 µM (inactive) in the assay on SK-OV-3; > 100 µM in the assay on HCT-15; > 100 µM (inactive) with ACHN; > 100 µM (inactive) in the assay on SK-MEL-28; > 100 µM (inactive) with NCI-H23; > 100 µM (inactive) in the assay with SNB-19. In addition, the GI50 in the assay with HCC 2998, with UACC-257, in the assay with KM12, with M14, in the assay on SF-539 and with OVCAR-5 was > 100 µM (inactive) throughout. Also, the GI50 with Malme-3M, with HT-29, in the assay on CAKI-1 and in the assay on RPMI-8226 was > 100 µM (inactive) each time.

For the compound `Cc1ccc(S(=O)(=O)c2ccccn2)cc1`, the GI50 is > 100 µM (inactive) with SK-OV-3; > 100 µM in the assay on HCT-15; > 100 µM (inactive) in the assay on ACHN; > 100 µM (inactive) in the assay with SK-MEL-28; > 100 µM (inactive) in the assay with NCI-H23; > 100 µM (inactive) in the assay on SNB-19. The GI50 in the assay on HCC 2998 was > 100 µM (inactive); in the assay with UACC-257, > 100 µM (inactive); in the assay on KM12 it was > 100 µM (inactive); in the assay on M14, > 100 µM (inactive); in the assay with SF-539 it was > 100 µM (inactive); in the assay with OVCAR-5, 46.5 µM (inactive). The GI50 in the assay on Malme-3M, in the assay on HT-29, with CAKI-1 and in the assay on RPMI-8226 was > 100 µM (inactive) in each case.

Consider `C#CCOCn1cnc2ncnc(N)c21`, for which the GI50 in the assay on SK-OV-3, with ACHN, in the assay on SK-MEL-28, with NCI-H23, in the assay on SNB-19 and with HCC 2998 was > 100 µM (inactive) throughout. For the same compound, the GI50 with UACC-257, in the assay on KM12, with SF-539, in the assay with OVCAR-5, with Malme-3M and with HT-29 was > 100 µM (inactive) in each case. Also, the GI50 with CAKI-1 and in the assay on RPMI-8226 was > 100 µM (inactive) throughout.

For the compound `CC(=O)N(C)OC(=O)CC(=O)c1ccccc1`, the GI50 in the assay with SK-OV-3, with ACHN, in the assay on SK-MEL-28, in the assay on NCI-H23, with SNB-19 and in the assay with HCC 2998 was > 100 µM (inactive) each time. Moreover, the GI50 in the assay with UACC-257, with KM12, in the assay with M14, in the assay on SF-539, in the assay with OVCAR-5 and in the assay with Malme-3M was > 100 µM (inactive) in each case. The GI50 in the assay with HT-29, with CAKI-1 and in the assay on RPMI-8226 was > 100 µM (inactive) throughout.

For `CC(=O)OC1(C#N)CC2OC1C1N=NN(C(=O)OC(C)(C)C)C21` (stereo unspecified), the GI50 in the assay with SK-OV-3 is > 100 µM (inactive); in the assay with HCT-15, 13.8 µM; in the assay with ACHN, > 100 µM (inactive); with SK-MEL-28 it was 16.9 µM (inactive); with NCI-H23, > 10 µM (inactive); in the assay on SNB-19, > 100 µM (inactive). Besides, the GI50 in the assay with HCC 2998 was > 100 µM (inactive); with UACC-257, 20.4 µM (inactive); with M14, 21.7 µM (inactive); in the assay on SF-539, 9.75 µM (inactive); with OVCAR-5, > 100 µM (inactive); in the assay with Malme-3M, 34.7 µM (inactive). For the same compound, the GI50 was > 100 µM (inactive) in the assay with HT-29, > 31.6 µM (inactive) with CAKI-1 and 30.3 µM (inactive) with RPMI-8226.

As to `N[C@H](C(=O)O)[C@H](Cl)CC(=O)O`, the GI50 in the assay with SK-OV-3 was > 100 µM (inactive); with HCT-15, > 100 µM; in the assay with ACHN, > 100 µM (inactive); in the assay with SK-MEL-28, > 100 µM (inactive); in the assay with NCI-H23 it was > 100 µM (inactive); with SNB-19 it was > 100 µM (inactive). Besides, the GI50 in the assay with HCC 2998, in the assay with UACC-257, in the assay with KM12, in the assay on M14, in the assay on SF-539 and with OVCAR-5 was > 100 µM (inactive) throughout. Further, the GI50 in the assay with Malme-3M, with HT-29 and in the assay on CAKI-1 was > 100 µM (inactive) throughout.

On to `COC(=O)N/N=C(\C)C(CN(C)C)C(c1ccccc1)c1c(O)c2ccccc2oc1=O` (stereo unspecified), for which the GI50 in the assay with SK-OV-3 is > 100 µM (inactive); with HCT-15 it was > 100 µM; in the assay on ACHN, > 100 µM (inactive); in the assay on SK-MEL-28, > 100 µM (inactive); in the assay on NCI-H23 it was > 100 µM (inactive); in the assay with SNB-19, > 100 µM (inactive). Besides, the GI50 in the assay with HCC 2998, with UACC-257, in the assay on KM12, with M14, in the assay with SF-539 and with OVCAR-5 was > 100 µM (inactive) throughout. Also, the GI50 in the assay on Malme-3M, in the assay with HT-29, in the assay with CAKI-1 and in the assay with RPMI-8226 was > 100 µM (inactive) each time.

In the case of `COc1cc2c(c(OC)c1OC)-c1ccc(SC)c(=O)cc1[C@@H](NC(=O)c1ccc(OC(C)=O)cc1)CC2`, the GI50 with SK-OV-3 was 0.0241 µM (active); with HCT-15 it was 0.0229 µM; in the assay with ACHN, 0.0342 µM (active); in the assay with SK-MEL-28, 0.0553 µM (active); with NCI-H23 it was 0.0212 µM (active); in the assay with HCC 2998, 0.0218 µM (active). In addition, the GI50 in the assay with UACC-257 is 0.0349 µM (active); in the assay with KM12 it was 0.0198 µM (active); in the assay with M14, 0.0215 µM (active); in the assay on SF-539, 0.0169 µM (active); in the assay on OVCAR-5, 24.7 µM (inactive); in the assay with Malme-3M it was 0.0238 µM (active). Moreover, the figures for the GI50 in the assay with HT-29, in the assay with CAKI-1 and in the assay on RPMI-8226 were 0.0248 µM (active), 33.9 µM (inactive) and 0.0327 µM (active), respectively.
